Values of other authors in patent US11696905B2, “Ready-to-use tranexamic acid intravenous solution” (Boulevard Patience et Beaujonc Nº3/1, priority 2018, dated 2023).

Assays:
[1] = oral administration
[2] = four doses of 10-20 mg per kg body weight 36-48 hours before surgery

- absorption from the human gastrointestinal tract [1]: 40%
- time antifibrinolytically active concentration remained in the serum [2]: 7 to 8 h
- time antifibrinolytically active concentration remained in the tissues investigated [2]: up to 17 hours
Compound: NC[C@H]1CC[C@H](C(=O)O)CC1 [Tranexamic acid, trans-4-(aminomethyl)cyclohexanecarboxylic acid]
- antifibrinolytically active concentration (in vivo): 10 µg/mL
